Experimental data reported in US5744452A, “γ-L-glutamyl containing immunomodulator compounds and methods therewith” (Wei; Edward T., priority 1995, dated 1998).

Key:
murine spleen cells = experiment: IL-2 production by Concanavalin A activated murine spleen cells (CTLL-2 cell assay); type: cell-based, CBA mice; details: for IL-2 production by murine spleen cells: Table 2; for interleukin-2 production by murine spleen cells: Table 6
Protocol: Spleen cells from CBA mice were cultured in tissue culture plates at a 10^6 cells/ml in RPMI-1640 medium supplemented with 10% fetal calf serum, 2 mM L-glutamine, and 80 μg/ml of Gentamycin. 1 μg/ml of Concanavalin A was used to activate basal IL-2 production from murine spleen lymphocytes. Bestim was added to cell cultures at the "0" time. After 36 hours supernatants were collected, centrifuged at 800 xg and IL-2 levels were measured in a CTLL-2 cell assay (Gillis et al., "T-cell Growth Factor: Parameters of Production and Quantitative Assay for Activity," J. Immunol., 120: 2027-2032, 1978). […] However, due to the variations in the method for IL-2 measurements clear dose-response comparisons could not be achieved.
IL-2 production studies have been performed using murine spleen lymphocytes activated with Concanavalin A. Spleen cells from CBA mice were cultured in a tissue culture plates at a 1×10^6 /ml concentration in RPMI-1640 medium supplemented with 10% fetal calf serum, 2 mM L-glutamine,80 μg/ml Gentamycin and 1 μg/ml Concanavalin A as an inducer of basal level IL-2 synthesis. Bestim at various concentration was added to cell cultures at the "0" time. After 36 hours supernatants were collected, centrifuged at 800 xg and used for IL-2 levels determination in a CTLL-2 cell assay (Gillis et al., 1978). IL-2-dependent CTLL-2 cells were grown in RPMI-1640 medium in the presence of 1-2 U/ml recombinant IL-2 as a growth factor. Before assay, cells were washed twice to remove IL-2 from the medium. After this wash tested supernatants were added and cells were incubated for 36 hours. IL-2-induced proliferation was assayed using a ^3 H-thymidine incorporation method.

murine bone marrow cells = experiment: .THETA.-antigen expression on murine bone marrow cells (T-lymphocyte precursor differentiation); type: cell-based, CBA strain mice; parameters: .THETA.-antigen expression on murine bone marrow cells: unit not given here; details: for .THETA.-antigen expression on murine bone marrow cells: Table 1; for Percent of murine bone marrow cells expressing .THETA.-antigen: Table 5
Protocol: Differentiation of murine T-lymphocyte precursors was studied by the enumeration of cells expressing early surface differentiation marker .THETA.-antigen. Bone marrow cells were obtained from CBA strain mice killed by cervical dislocation. Cells were washed from femur bones with Hank's balanced salt solution and washed 3 times with RPM 1-1640 medium by centrifugation at 400 xg. Peptides at desired concentrations were incubated with 1×10^6 /ml of obtained cells for 1 hour at 37° C. Theta-antigen (".THETA.-antigen") expression has been determined with antibrain antibodies in a cytotoxicity assay using complement-dependent cell lysis (Terasaki et al., "Microdroplet Lymphocyte Cytotoxicity Test. Manual of Tissue Typing Techniques," National Institutes of Health, Bethesda, Md., pp 50-55, 1972). Dead cells were counted microscopically after eosin staining. […] Its activity was much stronger than that of the reference thymogen peptide.
Differentiation of murine T-lymphocyte precursors was studied by the enumeration of cells expressing early surface differentiation marker--.THETA.-antigen which is an analog of the Thy-1 lymphocyte differentiation antigen. Bone marrow cells were obtained from CBA strain mice killed by cervical dislocation. Cells were washed from femur bones with Hank's balanced salt solution and washed 3 times with RPMI-1640 medium by centrifugation at 400 xg. Peptides at desired concentrations were incubated with 1×10^6 /ml of obtained cells for 1 hour at 37° C. .THETA.-antigen expression were determined with antibrain antibodies in a cytotoxicity assay using complement-dependent cell lysis (Terasaki et al., 1972). Dead cells were counted microscopically after eosin staining untreated bone marrow cells served as a negative control, and murine thymocytes as a positive control.

N[C@@H](CCC(=O)N[C@@H](Cc1c[nH]c2ccccc12)C(=O)O)C(=O)O [Bestim, γ-L-glutamyl-L-tryptophan]
IL-2 production by murine spleen cells (murine spleen cells; peptide 0.001 μg/ml, 36 hours): 159 ± 13
IL-2 production by murine spleen cells (murine spleen cells; peptide 0.01 μg/ml): 134 ± 8
IL-2 production by murine spleen cells (murine spleen cells; peptide 0.1 μg/ml): 98 ± 5
IL-2 production by murine spleen cells (murine spleen cells; peptide 1.0 μg/ml): 157 ± 10
IL-2 production by murine spleen cells (murine spleen cells; peptide 10 μg/ml): 95 ± 4
IL-2 production by murine spleen cells (murine spleen cells; peptide 100 μg/ml): 112 ± 3
interleukin-2 production by murine spleen cells (murine spleen cells; peptide 0.001 μg/ml): 149 ± 2
interleukin-2 production by murine spleen cells (murine spleen cells; peptide 0.01 μg/ml): 162 ± 4
interleukin-2 production by murine spleen cells (murine spleen cells; peptide 0.1 μg/ml): 172 ± 9
interleukin-2 production by murine spleen cells (murine spleen cells; peptide 1.0 μg/ml): 271 ± 11
interleukin-2 production by murine spleen cells (murine spleen cells; peptide 10 μg/ml): 160 ± 8
interleukin-2 production by murine spleen cells (murine spleen cells; peptide 100 μg/ml): 186 ± 6
effect on IL-2 secretion from cells (murine spleen cells; conclusion from Table 2): enhances IL-2 secretion from cells at low doses
.THETA.-antigen expression on murine bone marrow cells (murine bone marrow cells; peptide 0.0001 μg/ml, 1 hour 37° C.): 14 ± 1.5
.THETA.-antigen expression on murine bone marrow cells (murine bone marrow cells; peptide 0.001 μg/ml): 29 ± 2.4
.THETA.-antigen expression on murine bone marrow cells (murine bone marrow cells; peptide 0.01 μg/ml): 30 ± 2.8
.THETA.-antigen expression on murine bone marrow cells (murine bone marrow cells; peptide 0.1 μg/ml): 34 ± 1.9
.THETA.-antigen expression on murine bone marrow cells (murine bone marrow cells; peptide 1.0 μg/ml): 49 ± 1.2
.THETA.-antigen expression on murine bone marrow cells (murine bone marrow cells; peptide 10 μg/ml): 48 ± 0.8
.THETA.-antigen expression on murine bone marrow cells (murine bone marrow cells; peptide 100 μg/ml): 47 ± 1.0
Percent of murine bone marrow cells expressing .THETA.-antigen (murine bone marrow cells; peptide 0.0001 μg/ml): 25%
Percent of murine bone marrow cells expressing .THETA.-antigen (murine bone marrow cells; peptide 0.001 μg/ml): 31%
Percent of murine bone marrow cells expressing .THETA.-antigen (murine bone marrow cells; peptide 0.01 μg/ml): 35%
Percent of murine bone marrow cells expressing .THETA.-antigen (murine bone marrow cells; peptide 0.1 μg/ml): 37%
Percent of murine bone marrow cells expressing .THETA.-antigen (murine bone marrow cells; peptide 1.0 μg/ml): 49%
Percent of murine bone marrow cells expressing .THETA.-antigen (murine bone marrow cells; peptide 10 μg/ml): 52%
Percent of murine bone marrow cells expressing .THETA.-antigen (murine bone marrow cells; peptide 100 μg/ml): 60%
potency relative to thymogen (murine bone marrow cells; dose-response analysis of Table 1 data): at least 500 fold
concentrations with immunostimulatory activity (murine bone marrow cells; preclinical studies, summary): sub-nanomolar concentrations
